Assay results from PubChem BioAssay AID2060513 (Molecular Pharmacology Branch, DTP, NCI, 2025).

Test system: 299254-011-R-J1-PDC complex spheroids viability
Assay: Anticancer human tumor 299254-011-R-J1-PDC patient-derived melanoma cell line growth inhibition [GQUAD]
Conditions: for IC50: curve of first compound; for viability, T/C: stronger effect = lower value
In short: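 Multi-cell-type spheroids of tumor cells with HUVEC and mesenchymal stem cells, treated with drug combinations. Concentrations descend in half-log steps from near clinical Cmax, or from 10 microM where Cmax is unknown; viability read-out.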

[1] = second compound 0.0316 µM, first compound 0.0316 µM
[2] = second compound 0.0316 µM, first compound 0.1 µM
[3] = second compound 0.0316 µM, first compound 0.316 µM
[4] = second compound 0.0316 µM, first compound 1 µM
[5] = second compound 0.0316 µM, first compound 3.16 µM
[6] = second compound 0.0316 µM, first compound 10 µM
[7] = second compound 0.1 µM, first compound 0.0316 µM
[8] = second compound 0.1 µM, first compound 0.1 µM
[9] = second compound 0.1 µM, first compound 0.316 µM
[10] = second compound 0.1 µM, first compound 1 µM
[11] = second compound 0.1 µM, first compound 3.16 µM
[12] = second compound 0.1 µM, first compound 10 µM
[13] = second compound 0.316 µM, first compound 0.0316 µM
[14] = second compound 0.316 µM, first compound 0.1 µM
[15] = second compound 0.316 µM, first compound 0.316 µM
[16] = second compound 0.316 µM, first compound 1 µM
[17] = second compound 0.316 µM, first compound 3.16 µM
[18] = second compound 0.316 µM, first compound 10 µM
[19] = second compound 1 µM, first compound 0.0316 µM
[20] = second compound 1 µM, first compound 0.1 µM
[21] = second compound 1 µM, first compound 0.316 µM
[22] = second compound 1 µM, first compound 1 µM
[23] = second compound 1 µM, first compound 3.16 µM
[24] = second compound 1 µM, first compound 10 µM
[25] = second compound 3.16 µM, first compound 0.0316 µM
[26] = second compound 3.16 µM, first compound 0.1 µM
[27] = second compound 3.16 µM, first compound 0.316 µM
[28] = second compound 3.16 µM, first compound 1 µM
[29] = second compound 3.16 µM, first compound 3.16 µM
[30] = second compound 3.16 µM, first compound 10 µM
[31] = second compound 10 µM, first compound 0.0316 µM
[32] = second compound 10 µM, first compound 0.1 µM
[33] = second compound 10 µM, first compound 0.316 µM
[34] = second compound 10 µM, first compound 1 µM
[35] = second compound 10 µM, first compound 3.16 µM
[36] = second compound 10 µM, first compound 10 µM
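Further: spheroids exposed to the agents for seven days before readout.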
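Wherever viability, T/C is given: percent viability relative to DMSO vehicle control wells = 100%.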

CC(C)n1c(=O)n(C)c2cnc3cc(F)c(-c4ccc(OCCCN5CCCCC5)nc4)cc3c21 + CN(C)c1ccc(Nc2c3ccc(NC(=O)CCN4CCCC4)cc3nc3cc(NC(=O)CCN4CCCC4)ccc23)cc1
IC50 (second compound 0.0316 µM): 9.23 µM | IC50 (second compound 0.1 µM): 8.05 µM | IC50 (second compound 0.316 µM): 8.13 µM | IC50 (second compound 1 µM): 7.22 µM | IC50 (second compound 3.16 µM): 5.7 µM | IC50 (second compound 10 µM): 2.13 µM | viability, T/C [1]: 102% | viability, T/C [2]: 108% | viability, T/C [3]: 91.2% | viability, T/C [4]: 76.3% | viability, T/C [5]: 94% | viability, T/C [6]: 46.7% | viability, T/C [7]: 93.4% | viability, T/C [8]: 79.6% | viability, T/C [9]: 106% | viability, T/C [10]: 80.7% | viability, T/C [11]: 81.3% | viability, T/C [12]: 42.7% | viability, T/C [13]: 86.4% | viability, T/C [14]: 102% | viability, T/C [15]: 87% | viability, T/C [16]: 93.2% | viability, T/C [17]: 85.7% | viability, T/C [18]: 42.1% | viability, T/C [19]: 91.6% | viability, T/C [20]: 87.1% | viability, T/C [21]: 79.4% | viability, T/C [22]: 77.6% | viability, T/C [23]: 85.9% | viability, T/C [24]: 36.5% | viability, T/C [25]: 93.9% | viability, T/C [26]: 81.8% | viability, T/C [27]: 86.2% | viability, T/C [28]: 77.2% | viability, T/C [29]: 61.9% | viability, T/C [30]: 38.1% | viability, T/C [31]: 83.2% | viability, T/C [32]: 79.9% | viability, T/C [33]: 77% | viability, T/C [34]: 64.5% | viability, T/C [35]: 42.4% | viability, T/C [36]: 28.9%

O=c1[nH]cc(F)c(=O)[nH]1 + Cc1cnc(CNC(=O)c2c(=O)c3ccc(N4CCCN(C)CC4)nc3n3c2sc2ccccc23)cn1
IC50 (second compound 0.0316 µM): > 10 µM | IC50 (second compound 0.1 µM): > 10 µM | IC50 (second compound 0.316 µM): > 10 µM | IC50 (second compound 1 µM): > 10 µM | IC50 (second compound 3.16 µM): > 10 µM | IC50 (second compound 10 µM): 0.0316 µM | viability, T/C [1]: 90.9% | viability, T/C [2]: 86% | viability, T/C [3]: 110% | viability, T/C [4]: 84.3% | viability, T/C [5]: 106% | viability, T/C [6]: 106% | viability, T/C [7]: 92.8% | viability, T/C [8]: 92.1% | viability, T/C [9]: 105% | viability, T/C [10]: 88.1% | viability, T/C [11]: 99.1% | viability, T/C [12]: 98.5% | viability, T/C [13]: 83.7% | viability, T/C [14]: 123% | viability, T/C [15]: 99.4% | viability, T/C [16]: 88.5% | viability, T/C [17]: 89.8% | viability, T/C [18]: 105% | viability, T/C [19]: 86.9% | viability, T/C [20]: 78% | viability, T/C [21]: 74.8% | viability, T/C [22]: 92.4% | viability, T/C [23]: 94.5% | viability, T/C [24]: 91.3% | viability, T/C [25]: 96% | viability, T/C [26]: 76% | viability, T/C [27]: 82.5% | viability, T/C [28]: 84.2% | viability, T/C [29]: 95.2% | viability, T/C [30]: 91.3% | viability, T/C [31]: 58.7% | viability, T/C [32]: 16.9% | viability, T/C [33]: 57.7% | viability, T/C [34]: 65.6% | viability, T/C [35]: 55.4% | viability, T/C [36]: 2.68%

COc1ncnc(C2CC2)c1-c1ncc2cnn(Cc3ccc(-c4nc(C(F)(F)F)cn4C(C)C)cc3)c2n1 + CN(C)c1ccc(Nc2c3ccc(NC(=O)CCN4CCCC4)cc3nc3cc(NC(=O)CCN4CCCC4)ccc23)cc1
IC50 (second compound 0.0316 µM): > 10 µM | IC50 (second compound 0.1 µM): > 10 µM | IC50 (second compound 0.316 µM): > 10 µM | IC50 (second compound 1 µM): > 10 µM | IC50 (second compound 3.16 µM): > 10 µM | IC50 (second compound 10 µM): > 10 µM | viability, T/C [1]: 92.6% | viability, T/C [2]: 78.1% | viability, T/C [3]: 106% | viability, T/C [4]: 98.3% | viability, T/C [5]: 101% | viability, T/C [6]: 88% | viability, T/C [7]: 102% | viability, T/C [8]: 97.3% | viability, T/C [9]: 114% | viability, T/C [10]: 96.3% | viability, T/C [11]: 97.4% | viability, T/C [12]: 121% | viability, T/C [13]: 101% | viability, T/C [14]: 103% | viability, T/C [15]: 92.2% | viability, T/C [16]: 99.4% | viability, T/C [17]: 101% | viability, T/C [18]: 117% | viability, T/C [19]: 117% | viability, T/C [20]: 77% | viability, T/C [21]: 98.6% | viability, T/C [22]: 98.6% | viability, T/C [23]: 99.8% | viability, T/C [24]: 107% | viability, T/C [25]: 86.9% | viability, T/C [26]: 99.8% | viability, T/C [27]: 86.5% | viability, T/C [28]: 105% | viability, T/C [29]: 113% | viability, T/C [30]: 104% | viability, T/C [31]: 93.3% | viability, T/C [32]: 110% | viability, T/C [33]: 96.2% | viability, T/C [34]: 79.4% | viability, T/C [35]: 89.5% | viability, T/C [36]: 93.7%

CC(C)n1c(=O)n(C)c2cnc3cc(F)c(-c4ccc(OCCCN5CCCCC5)nc4)cc3c21 + Cc1cnc(CNC(=O)c2c(=O)c3ccc(N4CCCN(C)CC4)nc3n3c2sc2ccccc23)cn1
IC50 (second compound 0.0316 µM): > 10 µM | IC50 (second compound 0.1 µM): 7.38 µM | IC50 (second compound 0.316 µM): 2.38 µM | IC50 (second compound 1 µM): 4.09 µM | IC50 (second compound 3.16 µM): 1.36 µM | IC50 (second compound 10 µM): < 0.0316 µM | viability, T/C [1]: 94.4% | viability, T/C [2]: 79.1% | viability, T/C [3]: 85.8% | viability, T/C [4]: 73% | viability, T/C [5]: 69.7% | viability, T/C [6]: 51% | viability, T/C [7]: 96.9% | viability, T/C [8]: 96.4% | viability, T/C [9]: 77.3% | viability, T/C [10]: 87.8% | viability, T/C [11]: 63.1% | viability, T/C [12]: 44.4% | viability, T/C [13]: 77.4% | viability, T/C [14]: 87.2% | viability, T/C [15]: 65.2% | viability, T/C [16]: 55.7% | viability, T/C [17]: 53% | viability, T/C [18]: 39.5% | viability, T/C [19]: 56.4% | viability, T/C [20]: 56.6% | viability, T/C [21]: 66.9% | viability, T/C [22]: 54.7% | viability, T/C [23]: 58.1% | viability, T/C [24]: 22.4% | viability, T/C [25]: 55.4% | viability, T/C [26]: 78.3% | viability, T/C [27]: 64% | viability, T/C [28]: 53.5% | viability, T/C [29]: 35.6% | viability, T/C [30]: 13.6% | viability, T/C [31]: 0.37% | viability, T/C [32]: 12.4% | viability, T/C [33]: 12.2% | viability, T/C [34]: 3.21% | viability, T/C [35]: 0.36% | viability, T/C [36]: 0.31%
